# Measured values taken from US12551526B2, “Enterically delivered bitter oligopeptides for the treatment for type 2 diabetes” (Cedars-Sinai Medical Center, priority 2015, dated 2026).
# Where a chain is given by its changes, count along the chain named. “Also recorded” adds a separate entry of the source. Like-named read-outs stand apart in the source and are kept apart here.
# Experiments:
# [1] = system: HuTu-80 cells; experiment: GLP-1 release from cultured HuTu-80 cells (Luminex assay); type: cell-based, human; conditions: for GLP-1 release: HuTu-80 cells treated 30 min, GLP-1 in conditioned media; for increase in GLP-1 over the basal release / GLP-1 release compared with TAS2R38 ligands PTC and PTU: HuTu-80 cells; for increase in GLP-1 over the basal release: 30 min, FIG. 9A; for GLP-1 release compared with TAS2R38 ligands PTC and PTU: FIG. 9B, PTC and PTU 10 mM
# Procedure: HuTu-80 cells were untreated (zero-time) or treated with vehicle and various phytochemicals at indicated concentrations for 30 min. […] Values are mean±SE, N=3, *P<0.05, **P<0.01
# HuTu-80 cells (HTB-40, ATCC) were propagated in Dulbecco's modified Eagle's medium (DMEM) containing 4 mM L-glutamine, 1.5 g/L sodium bicarbonate, and 4.5 g/L glucose, supplemented with 10% FBS and PSG antibiotic mix and maintained at 10% CO2 and 37° C. For experiments, these cells were seeded in 6-well plates or […] tissue culture dishes, propagated to confluence (5-7 days) and arrested in serum-free media overnight prior to treatments. Prior to the experiment, spent media was replaced with OPTI-MEM (Gibco, Life Technologies, Grand Island, NY) containing Halt Protease and Phosphatase Inhibitor cocktail (Thermo Fisher Scientific, Rockford, IL) and individual wells dosed for 30 min. […] The media from cells was collected and frozen for subsequent peptide hormone release measurement using a Luminex MAGPIX metabolism multiplexing assay kit (HMHMAG-34K) following the manufacturer's instructions.
# [2] = system: GLP-1 release; experiment: In vivo GLP-1 release in mice after gastric gavage; conditions: PTU-cellulose 5 g/kg, PTU 200 mg/kg, FIG. 4B
# Procedure: FIG. 4A Synthesis of PTU-cellulose.
# Retro-orbital blood was obtained and GLP-1 was measured at regular intervals.
# The molecules were administered by gastric gavage to pathogen-free, 6-to-8-week-old male BALB/c mice. […] The cellulose alone had no effect.
# [3] = target: T1, TAS2R38 (Homo sapiens, UniProt P59533); experiment: GLP-1 release in HuTu-80 cells with TAS2R38 siRNA knockdown; type: cell-based; conditions: siTAS2R38 versus siCONTROL, 30 min
# T1 construct: Cultured HuTu-80 cells were transfected with single and mixed oligonucleotide siRNAs for TAS2R38; host or cells: HuTu-80
# T1 sequence (P59533 1-333): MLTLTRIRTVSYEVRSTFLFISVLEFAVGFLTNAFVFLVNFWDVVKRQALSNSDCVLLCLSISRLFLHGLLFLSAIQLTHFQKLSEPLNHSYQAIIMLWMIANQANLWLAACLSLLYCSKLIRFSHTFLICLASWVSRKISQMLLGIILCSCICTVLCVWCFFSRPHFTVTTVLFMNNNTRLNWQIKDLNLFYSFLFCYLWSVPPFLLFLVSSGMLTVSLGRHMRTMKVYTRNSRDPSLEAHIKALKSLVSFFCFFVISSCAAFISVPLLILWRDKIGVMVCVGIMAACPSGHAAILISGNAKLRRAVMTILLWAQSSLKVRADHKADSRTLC
# Procedure: In order to determine the specific GPCR mediating the response of a particular ligand, we performed in vitro RNA silencing of TAS2R38. RNA silencing was performed using a commercial kit (FlexiTube siRNA, Qiagen) consisting of 4 predesigned oligonucleotides that specifically target each gene transcript. Each kit also had accompanying controls and quantifying assays for detection of gene knockdown. Cultured HuTu-80 cells were transfected with single and mixed oligonucleotide siRNAs for TAS2R38 using HiPerFect transfection reagent (Qiagen) or Lipofectamine 2000 (Life Tech) according to the procedure recommended by the manufacturer. Cells were maintained in the basal medium for up to 48 h. Gene knockdown was evaluated by RT-qPCR and Western blot by suitable antibody to ensure inhibition occurred. […] Dose-response curve of the ligand with and without siRNA treatment was generated.
# FIGS. 6, 7, and 8 show the receptor expression and knockdown in HuTu-80 cells using a TAS2R38 receptor siRNA.
# Conditioned media were collected and frozen until GLP-1 measurement. Values are mean±SD, N=3. GLP-1 is measured using Luminex assay.
# [4] = system: HuTu-80 cells; experiment: GLP-1 release from cultured HuTu-80 cells (Luminex assay); type: cell-based, human; conditions: FIG. 3; printed as based on in vivo studies in mice
# [5] = target: T2, hTAS2R38AVI (Homo sapiens, UniProt P59533, A262V); conditions: non-taster haplotype; cited from earlier work
# T2 sequence (P59533 1-333 A262V): T1 sequence (P59533 1-333) with A262V
# [6] = system: HuTu-80 cells; conditions: previous studies; cited from earlier work
# [7] = target: T3, hTAS2R38PAV (Homo sapiens, UniProt P59533); conditions: taster haplotype; cited from earlier work
# T3 sequence (P59533 1-333): T1 sequence (P59533 1-333)
compound,measurement,setting,value
"Ala-Ala-Ala-Ala (AAAA; printed: Ala-Ala-Ala-Ala) [PolyAla, scrambled PolyAla control peptide]",GLP-1 release,[1],in effective at causing GLP-1 release
O=c1oc2cc(O)ccc2c2ccc(O)cc12 [urolithin A],increase in GLP-1 over the basal release,[1],significant increases
"CCCc1cc(=O)[nH]c(=S)[nH]1 [PTU, 6-n-propylthiouracil]",GLP-1 release into the blood,[2],caused GLP-1 release into the blood
same,GLP-1 release,[1],caused GLP-1 release
same,GLP-1 release when TAS2R38 expression is knocked down,[3],right-shifted
"CCCCCCCCCCCCCCCC(=O)O [palmitate, palmitic acid]",GLP-1 release,[1],GLP-1 secretory response was also observed
same,GLP-1 release compared with TAS2R38 ligands PTC and PTU,[1],stimulate GLP-1 release comparable to that by TAS2R38 ligands PTC and PTU
CN(C)C(=N)N=C(N)N [metformin],GLP-1 release,[1],can activate GLP-1 release
"YPFPGPIPN [BPx2, bitter oligopeptide derived from milk-whey proteins]",potency rank among the four oligopeptides,[4],most potent
"NC(=S)Nc1ccccc1 [PTC, Phenylthiocarbamide]",receptor response,[5],does not respond
same,GLP-1 release,[6],GLP-1 release
same,receptor response,[7],strong response at μM concentrations
"YGLF [BPx1, bitter oligopeptide derived from milk-whey proteins]",potency rank among the four oligopeptides,[4],most potent
same,GLP-1 release when TAS2R38 expression is knocked down,[3],predominantly through TAS2R38; also recorded: decreased
CC1(C)CC[C@]2(C(=O)O)CC[C@]3(C)C(=CC[C@@H]4[C@@]5(C)CC[C@H](O)C(C)(C)[C@@H]5CC[C@]43C)[C@@H]2C1 [oleanolic acid],increase in GLP-1 over the basal release,[1],significant increases
O=c1oc2c(O)c(O)cc3c(=O)oc4c(O)c(O)cc1c4c23 [ellagic acid],increase in GLP-1 over the basal release,[1],significant increases
CCC(=O)O [propionate],GLP-1 release,[1],GLP-1 secretory response was also observed
same,GLP-1 release compared with TAS2R38 ligands PTC and PTU,[1],stimulate GLP-1 release comparable to that by TAS2R38 ligands PTC and PTU
